Each block holds one compound with its values, some of them ahead of it.
What was measured:
Assay type in all cases: cell-based, rat
IL-1β = IL-1β mRNA in LPS/IFNγ-stimulated primary astrocytes
Protocol: A 20-mer antisense oligonucleotide of the following sequence (5′-CGCTTGAGCGCAGACATCTT-3′, SEQ ID NO:1) targeted against rat lactosylceramide synthase (GalT-2) were synthesized by Integrated DNA Technology. A scrambled oligonucleotide (5′-CTGATATCGTCGATATCGAT-3′, SEQ ID NO:2) was also synthesized and used as control. Cells were counted and plated a day before transfection and the following day were treated with Oligofectamine (Invitrogen)-oligonucleotide complexes (200 nM oligo) under serum free conditions. 48 h following transfection, the protein levels of GalT-2 were analyzed using polyclonal antibodies raised against rat GalT-2 (Abjent Inc., CA). The transfected cells were stimulated with LPS/IFNγ (1 μg/ml) and levels of nitric oxide were checked 24 h following stimulation. iNOS mRNA and protein levels were checked at 6 h and 24 h, respectively, following stimulation of transfected cells.
5 μg total RNA was treated with 2 U DNAse I (bovine pancreas, Sigma) for 15 min at room temperature in 18 μl volume containing 1×PCR buffer and 2 mM MgCl2. It was then inactivated by incubation with 2 μl of 25 mM EDTA at 65° C. for 15 min. 2 μl of random primers were added and annealed to the RNA according to the manufacturer's protocol. cDNA was synthesized in a 50 μl reaction containing 5 μg of total RNA and 50-100 U reverse transcriptase by incubating the tubes at 42° C. for 60 min. […]

ERK1/2 = ERK1/2 activation (phospho-ERK1/2 immunoblot) in primary astrocytes
Protocol: For iNOS protein, the cells were washed with cold Tris buffered saline (TBS; 20 mM Trizma base, and 137 mM NaCl, pH 7.5), lysed in 1×SDS sample loading buffer (62.5 mM Trizma base, 2% w/v SDS, 10% glycerol), following sonication and centrifugation at 15,000×g for 5 min, the supernatant was used for the iNOS western immunoblot assay. The protein concentration of samples was determined with the detergent compatible protein assay reagent (Bio-Rad Laboratories, CA) using bovine serum albumin (BSA) as the standard. Sample was boiled for 3 min with 0.1 volumes of 10% β-mercaptoethanol and 0.5% bromophenol blue mix. Fifty μg of total cellular protein was resolved by electrophoresis on 8 or 12% polyacrylamide gels, electro-transferred to polyvinylidene difluoride (PVDF) filter and blocked with Tween 20 containing Tris-buffered saline (TBST; 10 mM Trizma base-pH 7.4, 1% Tween 20, and 150 mM NaCl) with 5% skim milk. After incubation with antiserum against iNOS (BD PharMingen, CA), rat GalT-2 (Abjent Inc., CA), H-Ras (Upstate Biotechnology, CA), GFAP (Santa Cruz Biotech, CA), or phospho-specific ERK1/2 (Cell signaling Tech Inc., MA), or pIκ-B (Signal Transduction), in PVDF buffer for 2 h at room temperature, the filters were washed 3 times with TBST buffer and then incubated with horseradish peroxidase conjugated anti-rabbit or mouse IgG for 1 h. The membranes were detected by autoradiography using ECL-plus (Amersham Pharmacia Biotech) after washing with TBST buffer.

small GTPase Ras = assay: Quantification of Ras activation (GST-Raf-1 RBD pull-down) in primary astrocytes
Protocol: After stimulation, primary astrocytes in 6-well plates were washed with ice cold PBS and lysed in membrane lysis buffer (MLB; 0.5 ml of 25 mM HEPES, pH 7.5, 150 mM NaCl, 1% Igepal CA-630, 0.25% sodium deoxycholate, 10% glycerol, 10 mM MgCl2, 1 mM EDTA, 25 mM NaF, 1 mM of sodium orthovanadate, and EDTA free Complete™ protease inhibitor cocktail). After centrifugation (5,000×g) at 4° C. for 5 min, supernatant was used for Ras activation assay. One hundred μg of supernatant was used for binding with agarose conjugated Ras-binding domain (RBD) of Raf-1 which was expressed in BL21 (Invitrogen), Escherichia coli strain, transformed by pGEX-2T-GST-RBD in the presence of 0.1 mM of IPTG as described previously (Herrmann et al., 1995). The binding reaction was performed at 4° C. for 30 min in MLB. Following washing with MLB three times, Ras-RBD complex were denatured by adding of 2×SDS sample buffer. Ras protein was identified by western blot analysis with Ras antibodies from Upstate Biotechnology.

Compound: AS GalT-2 oligonucleotides: 20-mer antisense oligonucleotide 5′-CGCTTGAGCGCAGACATCTT-3′, SEQ ID NO:1, against rat lactosylceramide synthase (GalT-2) (antisense CGCTTGAGCGCAGACATCTT; chemistry not given here)
IL-1β mRNA expression (IL-1β; LPS/IFNγ-stimulated astrocytes, 48 h after transfection): suppressed

Reversal of LY-mediated inhibition of TNFα-mediated Ras activation (small GTPase Ras; LY 30 μM plus LacCer): bypassed
Reversal of PDMP-mediated reduction of LPS/IFNγ-mediated Ras activation (small GTPase Ras; LacCer plus PDMP 50 μM, LPS/IFNγ 5 min): fully reversed
Reversal of PDMP-mediated inhibition of TNFα-induced Ras activation (small GTPase Ras; PDMP 25 μM plus LacCer): fully reversed
Reversal of DMS-mediated inhibition of Ras activation (small GTPase Ras; exogenous lipid): reversed
Compound: Lactosylceramide [LacCer]
Reversal of LY-mediated inhibition of TNFα-mediated ERK1/2 activation (ERK1/2; LY 30 μM plus LacCer 10 μM): bypassed
Reversal of PD98059-mediated inhibition of TNFα-induced ERK1/2 activity (ERK1/2; exogenous LacCer): not
Reversal of PDMP-mediated inhibition of LPS/IFNγ-induced ERK1/2 phosphorylation (ERK1/2; exogenous LacCer): reversed
Reversal of PDMP-mediated inhibition of TNFα-induced ERK1/2 activity (ERK1/2; exogenous LacCer): reverse
Reversal of AS-mediated inhibition of IL-1β expression (IL-1β; exogenous LacCer, LPS/IFNγ): reversed

Compound: CCCCCCCCCC(=O)NC(CN1CCOCC1)C(O)c1ccccc1.Cl [PDMP, D-threo-1-Phenyl-2-decanoylamino-3-morpholino-1-propanol.HCl]
LPS/IFNγ-induced phosphorylation of ERK1/2 (ERK1/2; pretreated 0.5 h, LPS/IFNγ 20 min): inhibited
TNFα-induced ERK1/2 phosphorylation (ERK1/2; pretreated 0.5 h, TNFα 20 min): inhibited
LPS/IFNγ-mediated activation of Ras (small GTPase Ras; PDMP 50 μM 0.5 h, LPS/IFNγ 5 min): reduced
TNFα-induced Ras activation (small GTPase Ras; pretreated 0.5 h, TNFα): attenuated
